The record followed here is patent US10513623B2, “Aqueous ink, ink cartridge and image recording method” (CANON KABUSHIKI KAISHA, priority 2017, dated 2019).

The nature of data set [1]: Aqueous solubility of solvent A at 20° C. In kind it is physicochemical. Conditions: for Aqueous solubility: 20° C.
Data set [2] is described as follows: Log distribution coefficient of solvent A. It counts as physicochemical.

With `CC(O)COc1ccccc1` (centres unmarked) [1-Phenoxy-2-propanol], the Aqueous solubility in data set [1] worked out at 1.1 % by mass. Moreover, the Log distribution coefficient in data set [2] is on record as 1.51.
The compound `CC(O)Cc1ccccc1` (centres unmarked) [1-Phenyl-2-propanol] came in with an Aqueous solubility in data set [1] of 0.58 % by mass. In addition, the Log distribution coefficient in data set [2] was 1.71.
Take `OCCOc1ccccc1` [2-Phenoxyethanol]: the Aqueous solubility in data set [1] was 2.67 % by mass. Besides, the “aqueous solubility of the solvent A” value in data set [1] (solvent A of ink 1, rounded value) came to 2.7%. In data set [2], the Log distribution coefficient is recorded as 1.16.
`OCCCc1ccccc1` [3-Phenyl-1-propanol] had an Aqueous solubility in data set [1] of 0.568 % by mass. This compound also returned a Log distribution coefficient in data set [2] of 1.88.
Compound `OCCCCc1ccccc1` [4-Phenyl-1-butanol] yielded an Aqueous solubility in data set [1] of 0.1 % by mass. This compound also showed a Log distribution coefficient in data set [2] of 2.4.
The matching figures for `OCc1ccccc1` [Benzyl alcohol]: 4.29 % by mass and 1.03.
The compound `OCCc1ccccc1` [Phenethyl alcohol] gave an Aqueous solubility in data set [1] of 2.2 % by mass.
